Several values for one entry are separate records, joined by “and”; a condition that tells them apart may be missing. Identical values can stand only once. Toxic doses and inconclusive results are not listed. No stated cut-off is given here; in the data, active means T/C of 150% or more; inactive means T/C below 125%.
Tested on: L1210 leukemia ip in BDF1 mice, survival T/C
Experiment: NCI In Vivo Anticancer Drug Screen. Data for tumor model L1210 Leukemia (intraperitoneal) in B6D2F1 (BDF1) mice
Details: endpoint: mean survival time, higher = longer survival
Summary of the method: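 Transplanted-tumor mice were given test agent; controls received vehicle only. Survival readings from the two groups were divided (treated over control).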

[1] = dose: 100.0 mg/kg/injection, schedule: Q01DX009 (ip), vehicle: Klucel (hydroxypropylcellulose) (HPC)
[2] = dose: 200.0 mg/kg/injection, schedule: Q01DX009 (ip), vehicle: Klucel (hydroxypropylcellulose) (HPC)
[3] = dose: 400.0 mg/kg/injection, schedule: Q01DX009 (ip), vehicle: Klucel (hydroxypropylcellulose) (HPC)
[4] = dose: 100.0 mg/kg/injection, schedule: Q04DX003 (ip), vehicle: Klucel (hydroxypropylcellulose) (HPC)
[5] = dose: 200.0 mg/kg/injection, schedule: Q04DX003 (ip), vehicle: Klucel (hydroxypropylcellulose) (HPC)
[6] = dose: 400.0 mg/kg/injection, schedule: Q04DX003 (ip), vehicle: Klucel (hydroxypropylcellulose) (HPC)
[7] = dose: 100.0 mg/kg/injection, schedule: Q04DX003 (ip), vehicle: saline with Tween-80
[8] = dose: 200.0 mg/kg/injection, schedule: Q04DX003 (ip), vehicle: saline with Tween-80
[9] = dose: 400.0 mg/kg/injection, schedule: Q04DX003 (ip), vehicle: saline with Tween-80

Measured: T/C

COc1ccc(-n2c(O)c(N=Nc3ccc(Cl)cc3)c(=O)n(-c3ccccc3)c2=S)cc1
inactive: dose: 37.5 mg/kg/injection, schedule: Q01DX001 (ip), vehicle: Klucel (hydroxypropylcellulose) (HPC) 89 % of control | dose: 75.0 mg/kg/injection, schedule: Q01DX001 (ip), vehicle: Klucel (hydroxypropylcellulose) (HPC) 94 % of control | dose: 150.0 mg/kg/injection, schedule: Q01DX001 (ip), vehicle: Klucel (hydroxypropylcellulose) (HPC) 92 % of control

CCC(=O)OCC1CCCO1 (centres undefined)
inactive: [1] 103 % of control | [2] 103 % of control | [3] 101 % of control

COc1ccc(C2=CN(S(=O)(=O)c3ccc(C)cc3)CCc3ccccc32)cc1
inactive: [4] 96 % of control | [5] 102 % of control | [6] 92 % of control

CC(=O)Oc1c2c(n3c1CCC3)CC(C)CC2=O (centres undefined)
inactive: dose: 50.0 mg/kg/injection, schedule: Q04DX002 (ip), vehicle: Klucel (hydroxypropylcellulose) (HPC) 97 % of control | dose: 100.0 mg/kg/injection, schedule: Q04DX002 (ip), vehicle: Klucel (hydroxypropylcellulose) (HPC) 97 % of control | dose: 200.0 mg/kg/injection, schedule: Q04DX002 (ip), vehicle: Klucel (hydroxypropylcellulose) (HPC) 102 % of control

Cc1cccc(NC(=O)c2ccccc2)n1
inactive: [7] 97 % of control | [8] 95 % of control | [9] 92 % of control

COc1ccc(C2CCCN(C)O2)cc1 (centres undefined)
inactive: dose: 100.0 mg/kg/injection, schedule: Q01DX001 (ip), vehicle: acetone 102 % of control | dose: 200.0 mg/kg/injection, schedule: Q01DX001 (ip), vehicle: acetone 91 % of control | dose: 400.0 mg/kg/injection, schedule: Q01DX001 (ip), vehicle: acetone 98 % of control

Cc1c2cc3c(c1O)C(=O)CC(O3)c1ccc(O)c(c1)-c1ccc(O)c(c1)C(=O)OCC1OC(O2)C(O)C(O)C1O (centres undefined)
inactive: dose: 0.13 mg/kg/injection, schedule: Q01DX009 (ip), vehicle: Klucel (hydroxypropylcellulose) (HPC) 98 % of control | dose: 0.25 mg/kg/injection, schedule: Q01DX009 (ip), vehicle: Klucel (hydroxypropylcellulose) (HPC) 95 % of control | dose: 0.5 mg/kg/injection, schedule: Q01DX009 (ip), vehicle: Klucel (hydroxypropylcellulose) (HPC) 101 % of control | dose: 1.0 mg/kg/injection, schedule: Q01DX009 (ip), vehicle: Klucel (hydroxypropylcellulose) (HPC) 114 % of control

CCOC(=O)Nc1ccc(Cl)cc1Cl
inactive: [7] 97 % of control | [8] 105 % of control | [9] 87 % of control

CN=C(Nc1ccc(Cl)c(Cl)c1)C(C)C
inactive: dose: 6.25 mg/kg/injection, schedule: Q04DX002 (ip), vehicle: DMSO 98 % of control | dose: 12.5 mg/kg/injection, schedule: Q04DX002 (ip), vehicle: DMSO 95 % of control | dose: 25.0 mg/kg/injection, schedule: Q04DX002 (ip), vehicle: DMSO 94 % of control and 106 % of control | dose: 44.0 mg/kg/injection, schedule: Q01DX Z (ip), vehicle: methylcellulose (MC) 91 % of control | dose: 50.0 mg/kg/injection, schedule: Q04DX002 (ip), vehicle: DMSO 97 % of control | dose: 66.0 mg/kg/injection, schedule: Q01DX Z (ip), vehicle: methylcellulose (MC) 98 % of control | dose: 100.0 mg/kg/injection, schedule: Q01DX Z (ip), vehicle: methylcellulose (MC) 101 % of control

Cc1[nH]c2c(C)ccc(C)c2c(=O)c1Br
inactive: dose: 100.0 mg/kg/injection, schedule: Q01DX001 (ip), vehicle: other 91 % of control | dose: 200.0 mg/kg/injection, schedule: Q01DX001 (ip), vehicle: other 94 % of control | dose: 400.0 mg/kg/injection, schedule: Q01DX001 (ip), vehicle: other 86 % of control

Cc1ccc(NC(=S)NC(Cc2ccccc2)c2ccccc2)c(C)c1 (centres undefined)
inactive: [1] 106 % of control | [4] 98 % of control | [2] 87 % of control | [5] 96 % of control | [3] 101 % of control | [6] 98 % of control

CCN(CC)C(=O)C(Br)C(Br)C(=O)N(CC)CC (centres undefined)
inactive: dose: 100.0 mg/kg/injection, schedule: Q04DX003 (ip), vehicle: acetone 100 % of control | dose: 200.0 mg/kg/injection, schedule: Q04DX003 (ip), vehicle: acetone 100 % of control | dose: 400.0 mg/kg/injection, schedule: Q04DX003 (ip), vehicle: acetone 92 % of control
